Assay results from PubChem BioAssay (NCI).
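Compound exposure: 48 hours, 5 concentrations, 96-well plates. The concentration for 50% growth inhibition is given as GI50. The concentration for full growth arrest is given as TGI.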

Experiments:
Experiment in all cases: DTP human tumour cell line panel, 48 h; in the data active = GI50 below about 0.43 µM; inactive = the rest
[1] = tested on: 786-0 renal
[2] = tested on: A549 NSCLC
[3] = tested on: ACHN renal
[4] = tested on: BT-549 breast
[5] = tested on: CAKI-1 renal
[6] = tested on: CCRF-CEM leukemia
[7] = tested on: COLO 205 colon
[8] = tested on: DU-145 prostate
[9] = tested on: EKVX NSCLC
[10] = tested on: HCC-2998 colon
[11] = tested on: HCT-116 colon
[12] = tested on: HCT-15 colon
[13] = tested on: HL-60(TB) leukemia
[14] = tested on: HOP-62 NSCLC
[15] = tested on: HOP-92 NSCLC
[16] = tested on: HT29 colon
[17] = tested on: IGROV1 ovarian
[18] = tested on: K-562 leukemia
[19] = tested on: KM12 colon
[20] = tested on: LOX IMVI melanoma
[21] = tested on: M14 melanoma
[22] = tested on: MALME-3M melanoma
[23] = tested on: MCF7 breast
[24] = tested on: MDA-MB-231 breast
[25] = tested on: MDA-MB-435
[26] = tested on: MOLT-4 leukemia
[27] = tested on: NCI-H226 lung
[28] = tested on: NCI-H23 lung
[29] = tested on: NCI-H460 lung
[30] = tested on: NCI-H522 lung
[31] = tested on: NCI/ADR-RES ovarian
[32] = tested on: OVCAR-3 ovarian
[33] = tested on: OVCAR-4 ovarian
[34] = tested on: OVCAR-5 ovarian
[35] = tested on: OVCAR-8 ovarian
[36] = tested on: PC-3 prostate
[37] = tested on: RPMI-8226 leukemia
[38] = tested on: SF-268 CNS
[39] = tested on: SF-295 CNS
[40] = tested on: SF-539 CNS
[41] = tested on: SK-MEL-28 melanoma
[42] = tested on: SK-MEL-5 melanoma
[43] = tested on: SK-OV-3 ovarian
[44] = tested on: SN12C renal
[45] = tested on: SNB-19 CNS
[46] = tested on: SNB-75 CNS
[47] = tested on: SR leukemia
[48] = tested on: SW-620 colon
[49] = tested on: T-47D breast
[50] = tested on: TK-10 renal
[51] = tested on: U251 CNS
[52] = tested on: UACC-257 melanoma
[53] = tested on: UACC-62 melanoma
[54] = tested on: UO-31 renal

NC(Cc1c[nH]c2c(O)cccc12)C(=O)O (stereo not drawn)
inactive: GI50 [1] > 100 µM | GI50 [2] > 100 µM | GI50 [3] > 100 µM | GI50 [4] > 100 µM | GI50 [5] > 100 µM | GI50 [6] > 100 µM | GI50 [7] > 100 µM | GI50 [8] > 100 µM | GI50 [9] > 100 µM | GI50 [10] > 100 µM | GI50 [11] > 100 µM | GI50 [12] > 100 µM | GI50 [13] > 100 µM | GI50 [14] > 100 µM | GI50 [15] > 100 µM | GI50 [16] > 100 µM | GI50 [17] > 100 µM | GI50 [18] > 100 µM | GI50 [19] > 100 µM | GI50 [20] > 100 µM | GI50 [21] > 100 µM | GI50 [22] > 100 µM | GI50 [23] > 100 µM | GI50 [24] > 100 µM | GI50 [25] > 100 µM | GI50 [26] > 100 µM | GI50 [27] > 100 µM | GI50 [28] > 100 µM | GI50 [29] > 100 µM | GI50 [30] > 100 µM | GI50 [31] > 100 µM | GI50 [32] > 100 µM | GI50 [33] > 100 µM | GI50 [34] > 100 µM | GI50 [35] > 100 µM | GI50 [36] > 100 µM | GI50 [37] > 100 µM | GI50 [38] > 100 µM | GI50 [39] > 100 µM | GI50 [40] > 100 µM | GI50 [41] > 100 µM | GI50 [42] 49.6 µM | GI50 [43] > 100 µM | GI50 [44] > 100 µM | GI50 [45] > 100 µM | GI50 [46] > 100 µM | GI50 [47] > 100 µM | GI50 [48] > 100 µM | GI50 [49] > 100 µM | GI50 [50] > 100 µM | GI50 [51] > 100 µM | GI50 [52] > 100 µM | GI50 [53] > 100 µM | GI50 [54] > 100 µM
> 100 µM: TGI [1] | TGI [2] | TGI [3] | TGI [4] | TGI [5] | TGI [6] | TGI [7] | TGI [8] | TGI [9] | TGI [10] | TGI [11] | TGI [12] | TGI [13] | TGI [14] | TGI [15] | TGI [16] | TGI [17] | TGI [18] | TGI [19] | TGI [20] | TGI [21] | TGI [22] | TGI [23] | TGI [24] | TGI [25] | TGI [26] | TGI [27] | TGI [28] | TGI [29] | TGI [30] | TGI [31] | TGI [32] | TGI [33] | TGI [34] | TGI [35] | TGI [36] | TGI [37] | TGI [38] | TGI [39] | TGI [40] | TGI [41] | TGI [42] | TGI [43] | TGI [44] | TGI [45] | TGI [46] | TGI [47] | TGI [48] | TGI [49] | TGI [50] | TGI [51] | TGI [52] | TGI [53] | TGI [54]
